Data: paper PMC4013053, “Identification of Selective Small Molecule Inhibitors of the Nucleotide-Binding Oligomerization Domain 1 (NOD1) Signaling Pathway” (PLoS ONE, 2014)
pIC50: −log10 of the molar value. Converted amounts (≈) assume the structure as drawn.

How the values were obtained:
full length human RIP2 = target: T1, full length human RIP2 (Homo sapiens, UniProt O43353); assay: RIP2 kinase autophosphorylation (ADP-Glo); type: biochemical; settings: RIPK2 autophosphorylation
T1 construct: autophosphorylation of full length human FLAG-6His tagged RIP2 expressed and purified from baculovirus; FLAG; 6His; made in house
T1 sequence (O43353 whole entry): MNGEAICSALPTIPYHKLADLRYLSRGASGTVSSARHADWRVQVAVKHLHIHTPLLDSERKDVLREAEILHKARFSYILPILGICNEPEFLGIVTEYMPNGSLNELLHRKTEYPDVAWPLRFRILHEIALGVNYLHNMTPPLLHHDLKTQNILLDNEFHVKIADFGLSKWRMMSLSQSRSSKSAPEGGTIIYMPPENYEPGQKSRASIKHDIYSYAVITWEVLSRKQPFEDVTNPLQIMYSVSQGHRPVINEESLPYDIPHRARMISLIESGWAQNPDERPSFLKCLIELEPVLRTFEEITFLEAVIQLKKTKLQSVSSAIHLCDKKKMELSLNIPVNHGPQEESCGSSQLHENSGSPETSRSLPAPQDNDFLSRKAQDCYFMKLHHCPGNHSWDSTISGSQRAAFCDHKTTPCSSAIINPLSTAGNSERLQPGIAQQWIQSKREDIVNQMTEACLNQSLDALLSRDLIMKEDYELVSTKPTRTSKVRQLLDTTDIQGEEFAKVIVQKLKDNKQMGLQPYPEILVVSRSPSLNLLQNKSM
Experimental: Direct effects of compounds on RIP2 kinase activity was determined by autophosphorylation of full length human FLAG-6His tagged RIP2 expressed and purified from baculovirus. Enzyme was pre-incubated with compounds in assay buffer (50 mM HEPES pH 7.5, 25 mM MgCl2, 0.05%[w/v] CHAPS, 1 mM DTT and 0.05 mg/mL BSA) in 384-well plates, and then incubated with 10 µM ATP for 2 hours at room temperature. The amount of ADP generated was measured using the ADP-Glo universal ADP detection assay for kinases (Promega) and luminescence quantified on a ViewLux imager.

TNFR1 = target: T2, TNFR1 (Homo sapiens, UniProt P19438); assay: TNFα-stimulated IL-8 release in 293/hNOD1 cells; type: cell-based; settings: IL-8 released into medium
T2 construct: TNFR1 (TNFα stimulated IL-8 secretion in 293/hNOD1 cells); host or cells: 293/hNOD1 (HEK293)
T2 sequence (P19438 30-455): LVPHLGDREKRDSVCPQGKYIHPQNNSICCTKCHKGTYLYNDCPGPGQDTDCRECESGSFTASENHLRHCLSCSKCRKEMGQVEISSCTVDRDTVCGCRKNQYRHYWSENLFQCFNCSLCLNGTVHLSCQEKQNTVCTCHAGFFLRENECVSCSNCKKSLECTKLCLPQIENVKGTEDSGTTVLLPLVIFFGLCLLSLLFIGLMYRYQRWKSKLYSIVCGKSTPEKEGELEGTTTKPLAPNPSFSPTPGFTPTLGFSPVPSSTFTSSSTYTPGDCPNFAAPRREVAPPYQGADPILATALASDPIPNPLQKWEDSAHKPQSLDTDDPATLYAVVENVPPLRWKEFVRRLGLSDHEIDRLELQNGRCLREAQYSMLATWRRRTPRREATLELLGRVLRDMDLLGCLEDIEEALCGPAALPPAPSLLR
Experimental: Inhibitors of iE-DAP-stimulated IL-8 release were screened in a 1536-well assay in which 293/hNOD1 cells (5000 cells/well) in DMEM high glucose medium supplemented with 0.1% FBS and 10 µg/mL Blasticidin S were stimulated with 60 ng/mL (200 nM) iE-DAP (EC80) in the presence of 10 µM compounds. After 24 hours the amount of IL-8 secreted into the medium was determined by homogeneous time resolved fluorescence (HTRF) assay by the direct addition of a 1∶1 mix of europium cryptate and XL665-conjugated anti-IL-8 antibodies according to the manufacturer’s instructions (Cisbio). Fluorescence was measured after 2 hours in a ViewLux imager using UMB-AMC excitation and 618–671 nm emission filters (Perkin Elmer). […] Inhibition of TNFR1-induced IL-8 release was performed with 293/hNOD1 cells stimulated with 20 ng/mL (∼EC95) rhTNFα.
A high-throughput screen of about 2.2 million compounds was conducted for inhibitors of the NOD1 signaling pathway using suppression of iE-DAP stimulated IL-8 secretion in HEK293 cells stably expressing human NOD1 (293/hNOD1 cells). […] These assays were chosen to assess the selectivity of hits because the signaling pathways activated by these receptors converge at the level of the TAB/TAK1/IKK complex.

endogenous NOD1 = target: T3, endogenous NOD1 (Homo sapiens, UniProt Q9Y239); assay: Tri-DAP-stimulated IL-8 release in HCT116 cells; type: cell-based; settings: for pIC50: human colon carcinoma cells, IL-8 released into medium; for inhibition of Tri-DAP-stimulated IL-8 secretion: HCT116, increasing concentrations (16 nM–16 µM)
T3 construct: Compound activity on endogenous NOD1 and NOD2 receptors was determined; host or cells: HCT116
T3 sequence (Q9Y239 1-953): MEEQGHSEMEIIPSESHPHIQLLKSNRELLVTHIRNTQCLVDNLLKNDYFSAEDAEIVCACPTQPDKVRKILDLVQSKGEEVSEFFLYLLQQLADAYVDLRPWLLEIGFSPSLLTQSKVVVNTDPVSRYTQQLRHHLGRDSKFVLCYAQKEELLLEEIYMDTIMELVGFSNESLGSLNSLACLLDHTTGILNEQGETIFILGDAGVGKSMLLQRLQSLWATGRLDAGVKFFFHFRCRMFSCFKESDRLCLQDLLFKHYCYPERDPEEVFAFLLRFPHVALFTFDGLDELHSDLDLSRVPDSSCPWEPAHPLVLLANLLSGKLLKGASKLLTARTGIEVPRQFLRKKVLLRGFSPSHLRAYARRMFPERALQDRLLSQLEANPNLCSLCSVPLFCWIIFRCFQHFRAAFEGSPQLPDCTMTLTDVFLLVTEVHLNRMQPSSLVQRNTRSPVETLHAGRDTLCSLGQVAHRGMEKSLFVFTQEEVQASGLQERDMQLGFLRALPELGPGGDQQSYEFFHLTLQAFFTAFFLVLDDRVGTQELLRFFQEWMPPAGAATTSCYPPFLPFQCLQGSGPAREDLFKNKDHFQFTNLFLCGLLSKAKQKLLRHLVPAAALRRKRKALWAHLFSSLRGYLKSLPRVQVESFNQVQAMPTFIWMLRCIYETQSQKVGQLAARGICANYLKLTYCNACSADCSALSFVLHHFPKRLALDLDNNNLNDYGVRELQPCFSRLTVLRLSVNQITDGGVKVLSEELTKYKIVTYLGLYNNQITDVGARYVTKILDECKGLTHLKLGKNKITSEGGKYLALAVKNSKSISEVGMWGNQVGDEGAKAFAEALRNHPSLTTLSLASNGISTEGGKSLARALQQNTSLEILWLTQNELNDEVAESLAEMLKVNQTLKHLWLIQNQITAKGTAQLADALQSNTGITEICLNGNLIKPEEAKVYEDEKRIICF
Experimental: For assay, cells were seeded into 96 well plates (90,000 cells/well) in DMEM containing 1% FBS and pre-incubated with compounds for 1 hour before addition of either 25 µg/mL Tri-DAP or 1 µg/mL MDP. The level of IL-8 released into medium after 24-hour incubation was determined by HTRF assay (Cisbio) as described above and fluorescence measured on an Envision model 2102 multilabel plate reader (Perkin Elmer). The activity of compounds against NOD1-induced type I interferon response was determined by inhibition of Tri-DAP stimulated IP-10 secretion in HT-29 cells, maintained in the same medium as for HCT116 cells. The HT-29 cells were seeded into 96 well plates (60,000 cells/well) in DMEM with 1% FBS, pre-incubated with compounds for 1 hour and stimulated for 24 hours with 50 µg/mL Tri-DAP. The concentration of IL-8 released into the medium was measured by HTRF as above, IP-10 was measured using the IP-10/CXCL10 Quantikine ELISA kit (R&D Systems), and IFNβ was measured using the MA6000 human IFN-β tissue culture kit (Meso Scale Discovery).

CLND solubility = type: physicochemical; settings: phosphate buffered saline with 5% DMSO, pH 7.4, aqueous buffer, kinetic from dmso stock; 5% DMSO pH7.4 phosphate buffered saline
Excerpt: Physicochemical analyses of compounds were completed at GSK.

Cc1nc2ccccc2c(=O)n1-c1ccc(Cl)c(NS(=O)(=O)c2ccccc2F)c1 [Compound 22]
pIC50 (full length human RIP2): < 4.30
pIC50 (TNFR1): < 4.30
pIC50 (endogenous NOD1): 7.52

Cn1c(=O)[nH]c(=O)c2c1nc(CCSc1ccccc1)n2Cc1ccccc1 [SB711]
pIC50 (full length human RIP2): < 4.00
pIC50 (TNFR1): < 4.30
solubility (CLND solubility): 2 µM (≈ 0.785 µg/mL)
inhibition of Tri-DAP-stimulated IL-8 secretion (endogenous NOD1): complete inhibition
pIC50 (endogenous NOD1): 6.05

Cc1nc2ccc(NC(=O)c3cccc(NS(=O)(=O)c4ccc(F)cc4)c3)cc2s1 [GSK966]
pIC50 (full length human RIP2): < 4.00
pIC50 (TNFR1): < 4.30
solubility (CLND solubility): 41 µM (≈ 18.1 µg/mL)
inhibition of Tri-DAP-stimulated IL-8 secretion (endogenous NOD1): complete inhibition
pIC50 (endogenous NOD1): 6.15

Cc1ccc(S(=O)(=O)Nc2cccc(C(=O)Nc3ccc4nc(C)sc4c3)c2)cc1 [Compound 16]
pIC50 (full length human RIP2): < 4.30
pIC50 (TNFR1): < 4.52
solubility (CLND solubility): 14 µM (≈ 6.13 µg/mL)
pIC50 (endogenous NOD1): 7.22

CCc1ccc(S(=O)(=O)Nc2cc(-n3c(C)nc4ccccc4c3=O)ccc2F)s1 [GSK223]
pIC50 (full length human RIP2): < 4.30
pIC50 (TNFR1): < 4.30
solubility (CLND solubility): 327 µM (≈ 145 µg/mL)
inhibition of Tri-DAP-stimulated IL-8 secretion (endogenous NOD1): complete inhibition
pIC50 (endogenous NOD1): 6.40
